Like-named read-outs stand apart in the source and are kept apart here.
Columns and labels:
[1] = system: clone of Th2 lymphocytes (D10.G4.1)
Description: Cell toxicity tests were carried out on a clone of Th2 lymphocytes (D10.G4.1) through flow cytometry using Propidium Iodide in order to determine cell death.
After this time, the cells were washed and incubated with 5 μg/ml of Propidium Iodide during 1 min. The samples treated in this way were analysed by cytometry using BD FACSCanto™ equipment.

[2] = target: T1, catalytic domain of PDE7A1 (aa. 130-482) (Homo sapiens, UniProt Q13946); assay: PDE inhibitor test, PDE7A1 (3H-cAMP hydrolysis); format: biochemical; conditions: substrate at 1/10 of KM; six inhibitor concentrations; duplicate; read-out: Inhibitor data of PDE7A1 (CI50)
T1 construct: The catalytic domain of PDE7A1 (aá. 130-482); made in house; host or cells: E. coli BL21
T1 sequence (Q13946 130-482): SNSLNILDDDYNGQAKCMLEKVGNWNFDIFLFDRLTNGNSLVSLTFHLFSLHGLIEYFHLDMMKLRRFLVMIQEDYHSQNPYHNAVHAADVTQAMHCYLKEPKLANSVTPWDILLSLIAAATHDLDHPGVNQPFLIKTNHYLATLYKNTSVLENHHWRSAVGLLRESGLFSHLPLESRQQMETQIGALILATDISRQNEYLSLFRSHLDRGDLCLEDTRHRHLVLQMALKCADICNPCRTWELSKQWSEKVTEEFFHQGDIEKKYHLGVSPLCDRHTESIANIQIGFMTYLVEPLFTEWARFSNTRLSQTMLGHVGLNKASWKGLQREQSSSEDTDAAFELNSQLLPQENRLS

[3] = target: T2, complete enzyme of PDE4D2 (aa. 1-507) (Homo sapiens, UniProt Q08499); assay: PDE inhibitor test, PDE4D2 (3H-cAMP hydrolysis); format: biochemical; conditions: substrate at 1/10 of KM; six inhibitor concentrations; duplicate; read-out: Inhibitor data of PDE4D2 (CI50)
T2 construct: the complete enzyme of PDE4D2 (aa. 1-507); made in house; host or cells: E. coli BL21
T2 sequence (Q08499 303-809): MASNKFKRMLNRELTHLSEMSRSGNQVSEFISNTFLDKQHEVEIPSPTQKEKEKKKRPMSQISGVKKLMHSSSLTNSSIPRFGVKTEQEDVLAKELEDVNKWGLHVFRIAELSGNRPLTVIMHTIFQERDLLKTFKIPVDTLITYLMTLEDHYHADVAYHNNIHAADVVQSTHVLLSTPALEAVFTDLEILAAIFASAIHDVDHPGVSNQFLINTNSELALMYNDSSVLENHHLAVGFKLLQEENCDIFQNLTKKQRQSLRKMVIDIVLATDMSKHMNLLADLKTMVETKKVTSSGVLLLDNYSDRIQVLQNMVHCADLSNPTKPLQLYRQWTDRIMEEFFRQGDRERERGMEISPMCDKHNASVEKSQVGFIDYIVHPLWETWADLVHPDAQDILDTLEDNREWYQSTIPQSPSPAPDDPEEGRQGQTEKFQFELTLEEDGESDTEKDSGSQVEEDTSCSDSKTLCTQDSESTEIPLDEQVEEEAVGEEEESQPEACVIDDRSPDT
Description: The catalytic domain of PDE7A1 (aá. 130-482) and the complete enzyme of PDE4D2 (aa. 1-507) were subcloned in pET vectors, overexpressed in E. coli strain BL21, and purified to homogeneity as described in the bibliography (Wang, H., Liu, Y., Chen, Y., Robinson, H., and Ke, H. Multiple elements jointly determine inhibitor selectivity of cyclic nucleotide phosphodiesterases 4 and 7. J. Biol. Chem. 2005, 280, 30949-30955). The enzymatic activities of PDE7A1 and PDE4D2 were tested through incubation of the enzymes with 100 μL of a reaction mixture that contained 50 mM Tris.HCl (pH 8.5), 50 mM MgCl2, 5 mM DTT, and ^3H-cAMP (20000 cpm per test, Sigma-Aldrich) at room temperature during 10 minutes. The reactions were concluded by adding 200 μL 0.2 M ZnSO4 when 20-50% of the cAMP was hydrolysed. The product of the reaction, ^3H-AMP, was precipitated by adding 200 μL 0.25 M Ba(OH)2 (Sigma-Aldrich), while the unreacted ^3H-AMPc remained in the supernatant. Radioactivity of the supernatant was measured with a mixture of scintillation liquid (ScintiSafe PlusTM 50%, Fisher Scientific) using the counter LKB RackBeta 1214.
For inhibitor measurements, six concentrations of inhibitors were used in the presence of a substrate concentration equivalent to 1/10 of the KM and the enzyme concentration that hydrolyses 50% of the substrate. […] All experiments were carried out in duplicate.

[4] = system: T-lymphocytes; assay: Study of intracellular cAMP levels (cAMP Biotrak Enzymeimmunoassay); format: cell-based; conditions: inhibitor alone (FIG. 5)
Description: PDE inhibition has the direct effect of increasing cAMP, since their degradation is prevented. In order to verify this effect on the cell system of T-lymphocytes two compounds of formula (I) of the invention were chosen, specifically: TC 3.6 and TC 3.14 and cAMP concentration was measured using the cAMP Biotrak Enzymeimmunoassay System of Amersham Biosciences kit.

[5] = D10.G4.1 cells, 1×10^6 cells/ml, 48 h

In the case of “3-(2,6-difluorophenyl)-2-methylthio-4-thioxo-3,4-dihydroquinazoline [TC2.43]”, the “maximum concentration at which more than 80% cellular viability was maintained in comparison to the control of cells without inhibitor” value [1, 5] is reported as 5 µM.

In the case of Cc1ccc([N+](=O)[O-])cc1S(=O)(=O)N(C)C [BRL50481, 3-(N,N-dimethylsulfonamide)-4-methyl-nitrobenzene, reference compound], the “maximum concentration at which more than 80% cellular viability was maintained in comparison to the control of cells without inhibitor” value [1, 5] is reported as greater than 1000 µM.

For COc1ccc(C2CNC(=O)C2)cc1OC1CCCC1 (stereo not drawn) [Rolipram, reference compound], the “maximum concentration at which more than 80% cellular viability was maintained in comparison to the control of cells without inhibitor” value [1, 5] was greater than 1000 µM.

Work on O=c1c2cc(Br)ccc2[nH]c(=S)n1-c1ccccc1 [TC2.30A, 6-Bromo-3-phenyl-4-oxo-2-thioxo-1,2,3,4-tetrahydroquinazoline] yielded an IC50 [2] greater than 10000 nM.

Fc1ccc(-n2c(=S)[nH]c3ccccc3c2=S)c(F)c1F [TC2.45, 3-(2,3,4-Trifluorophenyl)-2,4-dithioxo-1,2,3,4-tetrahydroquinazoline] showed an IC50 [2] greater than 1000 nM.

In the case of Fc1cccc(F)c1-n1c(=S)[nH]c2ccccc2c1=S [TC2.49, 3-(2,6-Difluorophenyl)-2,4-dithioxo-1,2,3,4-tetrahydroquinazoline], the IC50 [2] is reported as roughly 1000 nM and the “maximum concentration at which more than 80% cellular viability was maintained in comparison to the control of cells without inhibitor” value ([1]; mouse, 48 h) is reported as 50 µM.

For CSc1nc2ccccc2c(=S)n1-c1ccc(F)c(F)c1F [TC2.51, 3-(2,3,4-trifluorophenyl)-2-methylthio-4-thioxo-3,4-dihydroquinazoline], the IC50 [2] was greater than 1000 nM.

In the case of CSc1nc2ccccc2c(=S)n1-c1c(F)cccc1F [TC3.1, 3-(2,6-difluorophenyl)-2-methylthio-4-thioxo-3,4-dihydroquinazoline], the IC50 [2] is reported as 100 to 1000 nM and the “maximum concentration at which more than 80% cellular viability was maintained in comparison to the control of cells without inhibitor” value ([1]; mouse, 48 h) is reported as 10 µM.

For S=c1[nH]c2ccccc2c(=S)n1-c1ccccc1 [TC3.6, 3-Phenyl-2,4-dithioxo-1,2,3,4-tetrahydroquinazoline], the IC50 [2] was 1040 ± 80 nM, the IC50 [3] was 5700 ± 30 nM and the “amount of intracellular cAMP in relation to the control” value [4] was “increased in a statistically significant manner”. The “cell toxicity (in words)” value ([1]; D10.G4.1 cells, 48 h, among the compounds of new synthesis) was “most moderate toxicity” and the “maximum concentration at which more than 80% cellular viability was maintained in comparison to the control of cells without inhibitor” value ([1]; mouse, 48 h) was 1000 µM.

In the case of CSc1nc2ccccc2c(=S)n1-c1ccccc1 [TC3.9, 3-Phenyl-2-methylthio-4-thioxo-3,4-dihydroquinazoline], the IC50 [2] is reported as 840 ± 10 nM, the IC50 [3] is reported as 8000 ± 1200 nM and the “maximum concentration at which more than 80% cellular viability was maintained in comparison to the control of cells without inhibitor” value ([1]; mouse, 48 h) is reported as 100 µM.

In the case of CSc1nc2ccccc2c(=S)n1-c1ccccc1Br [TC3.13, 3-(2-bromophenyl)-2-methylthio-4-thioxo-3,4-dihydroquinazoline], the IC50 [2] is reported as 100 to 1000 nM and the “maximum concentration at which more than 80% cellular viability was maintained in comparison to the control of cells without inhibitor” value ([1]; mouse, 48 h) is reported as 10 µM.

Cc1cccc2c(=O)n(-c3ccccc3Br)c(=S)[nH]c12 [TC3.14, 3-(2-Bromophenyl)-8-methyl-4-oxo-2-thioxo-1,2,3,4-tetrahydroquinazoline] was tested, and the IC50 [2] was 1700 ± 100 nM, the IC50 [3] was 34000 ± 5000 nM and the “amount of intracellular cAMP in relation to the control” value [4] was “increased in a statistically significant manner”. For the same compound, the “cell toxicity (in words)” value [1] was “most moderate toxicity” and the “maximum concentration at which more than 80% cellular viability was maintained in comparison to the control of cells without inhibitor” value ([1]; mouse, 48 h) was 600 µM.

For CSc1nc2c(C)cccc2c(=O)n1-c1ccccc1 [TC3.15b, 3-Phenyl-8-methyl-2-methylthio-4-oxo-3,4-dihydroquinazoline], the IC50 [2] was roughly 1000 nM, the “cell toxicity (in words)” value [1] was “most moderate toxicity” and the “maximum concentration at which more than 80% cellular viability was maintained in comparison to the control of cells without inhibitor” value ([1]; mouse, 48 h) was 600 µM.

In the case of Cc1cccc2c(=O)n(-c3c(F)cccc3F)c(=S)[nH]c12 [TC3.16, 3-(2,6-Difluorophenyl)-8-methyl-4-oxo-2-thioxo-1,2,3,4-tetrahydroquinazoline], the IC50 [2] is reported as greater than 1000 nM.

Compound Cc1cccc2c(=O)n(-c3ccc(F)c(F)c3F)c(=S)[nH]c12 [TC3.17, 3-(2,3,4-Trifluorophenyl)-8-methyl-4-oxo-2-thioxo-1,2,3,4-tetrahydroquinazoline] has an IC50 [2] greater than 10000 nM.

In the case of CSc1nc2c(C)cccc2c(=O)n1-c1ccccc1Br [TC3.22, 3-(2-Bromophenyl)-8-methyl-2-methylthio-4-oxo-3,4-dihydroquinazoline], the IC50 [2] is reported as 270 ± 20 nM, the IC50 [3] is reported as 1100 ± 200 nM and the “maximum concentration at which more than 80% cellular viability was maintained in comparison to the control of cells without inhibitor” value ([1]; mouse, 48 h) is reported as 5 µM.

In the case of CSc1nc2c(C)cccc2c(=O)n1-c1c(F)cccc1F [TC3.23, 3-(2,6-Difluorophenyl)-8-methyl-2-methylthio-4-oxo-3,4-dihydroquinazoline], the IC50 [2] is reported as 130 ± 20 nM, the IC50 [3] is reported as 1400 ± 200 nM and the “maximum concentration at which more than 80% cellular viability was maintained in comparison to the control of cells without inhibitor” value ([1]; mouse, 48 h) is reported as 10 µM.

Compound CSc1nc2c(C)cccc2c(=O)n1-c1ccc(F)c(F)c1F [TC3.24, 3-(2,3,4-Trifluorophenyl)-8-methyl-2-methylthio-4-oxo-3,4-dihydroquinazoline] has an IC50 [2] greater than 1000 nM.

In the case of O=c1c2cc(Br)ccc2[nH]c(=S)n1-c1ccccc1Br [TC3.28, 6-Bromo-3-(2-bromophenyl)-4-oxo-2-thioxo-1,2,3,4-tetrahydroquinazoline], the IC50 [2] is reported as roughly 10000 nM.

O=c1c2cc(Br)ccc2[nH]c(=S)n1-c1c(F)cccc1F [TC3.29, 6-Bromo-3-(2,6-difluorophenyl)-4-oxo-2-thioxo-1,2,3,4-tetrahydroquinazoline] was tested, and the IC50 [2] was greater than 10000 nM.

O=c1c2cc(Br)ccc2[nH]c(=S)n1-c1ccc(F)c(F)c1F [TC3.30, 6-Bromo-3-(2,3,4-trifluorophenyl)-4-oxo-2-thioxo-1,2,3,4-tetrahydroquinazoline] was tested, and the IC50 [2] was greater than 10000 nM.

For CSc1nc2ccc(Br)cc2c(=O)n1-c1ccc(F)c(F)c1F [TC3.32, 6-Bromo-3-(2,3,4-trifluorophenyl)-2-methylthio-4-oxo-3,4-dihydroquinazoline], the IC50 [2] was 2100 ± 100 nM and the “maximum concentration at which more than 80% cellular viability was maintained in comparison to the control of cells without inhibitor” value ([1]; mouse, 48 h) was 100 µM.

CSc1nc2ccc(Br)cc2c(=O)n1-c1ccccc1Br [TC3.35, 6-Bromo-3-(2-bromophenyl)-2-methylthio-4-oxo-3,4-dihydroquinazoline] was tested, and the IC50 [2] was 1860 ± 180 nM and the “maximum concentration at which more than 80% cellular viability was maintained in comparison to the control of cells without inhibitor” value ([1]; mouse, 48 h) was 10 µM.

For CSc1nc2ccc(Br)cc2c(=O)n1-c1c(F)cccc1F [TC3.36, 6-Bromo-3-(2,6-difluorophenyl)-2-methylthio-4-oxo-3,4-dihydroquinazoline], the IC50 [2] was 240 ± 30 nM, the IC50 [3] was 4500 ± 100 nM and the “maximum concentration at which more than 80% cellular viability was maintained in comparison to the control of cells without inhibitor” value ([1]; mouse, 48 h) was 10 µM.

Work on CSc1nc2ccc(Br)cc2c(=O)n1-c1ccccc1 [TC3.47A, 6-Bromo-3-phenyl-2-methylthio-4-oxo-3,4-dihydroquinazoline] yielded an IC50 [2] greater than 1000 nM.
